Measured values reported in the CheMixHub viscosity set.
± gives the uncertainty stated by the source.

Test: xn = mol fraction of the nth substance listed
Settings: 101 kPa

CC(C)=O + O
viscosity (293.15 K, x1 = 0.047): 1.328 ± 0.023 mPa·s | viscosity (293.15 K, x1 = 0.095): 1.549 ± 0.026 mPa·s | viscosity (293.15 K, x1 = 0.124): 1.586 ± 0.027 mPa·s | viscosity (293.15 K, x1 = 0.152): 1.588 ± 0.027 mPa·s | viscosity (293.15 K, x1 = 0.192): 1.504 ± 0.026 mPa·s | viscosity (293.15 K, x1 = 0.328): 1.129 ± 0.02 mPa·s | viscosity (293.15 K, x1 = 0.49): 0.746 ± 0.014 mPa·s | viscosity (293.15 K, x1 = 0.687): 0.497 ± 0.01 mPa·s | viscosity (293.15 K, x1 = 0.85): 0.404 ± 0.009 mPa·s | viscosity (298.15 K, x1 = 0.0201): 1.047 ± 0.0088 mPa·s | viscosity (298.15 K, x1 = 0.2): 1.343 ± 0.02 mPa·s | viscosity (298.15 K, x1 = 0.4): 0.88 ± 0.0089 mPa·s | viscosity (298.15 K, x1 = 0.6): 0.543 ± 0.014 mPa·s | viscosity (298.15 K, x1 = 0.8): 0.372 ± 0.027 mPa·s | viscosity (303.15 K, x1 = 0.047): 1.027 ± 0.018 mPa·s | viscosity (303.15 K, x1 = 0.095): 1.179 ± 0.02 mPa·s | viscosity (303.15 K, x1 = 0.124): 1.214 ± 0.021 mPa·s | viscosity (303.15 K, x1 = 0.152): 1.212 ± 0.021 mPa·s | viscosity (303.15 K, x1 = 0.192): 1.148 ± 0.02 mPa·s | viscosity (303.15 K, x1 = 0.328): 0.901 ± 0.016 mPa·s | viscosity (303.15 K, x1 = 0.49): 0.625 ± 0.012 mPa·s | viscosity (303.15 K, x1 = 0.687): 0.435 ± 0.009 mPa·s | viscosity (303.15 K, x1 = 0.85): 0.367 ± 0.008 mPa·s | viscosity (308.15 K, x1 = 0.0499): 0.9532 ± 0.0081 mPa·s | viscosity (308.15 K, x1 = 0.0702): 1.015 ± 0.0083 mPa·s | viscosity (308.15 K, x1 = 0.1): 1.064 ± 0.0086 mPa·s | viscosity (308.15 K, x1 = 0.12): 1.08 ± 0.0087 mPa·s | viscosity (308.15 K, x1 = 0.1499): 1.084 ± 0.0087 mPa·s | viscosity (308.15 K, x1 = 0.1701): 1.069 ± 0.0086 mPa·s | viscosity (308.15 K, x1 = 0.1999): 1.039 ± 0.0085 mPa·s | viscosity (308.15 K, x1 = 0.22): 1.012 ± 0.0083 mPa·s | viscosity (308.15 K, x1 = 0.2499): 0.9681 ± 0.0081 mPa·s | viscosity (308.15 K, x1 = 0.2701): 0.9345 ± 0.0079 mPa·s | viscosity (308.15 K, x1 = 0.3001): 0.8823 ± 0.0076 mPa·s | viscosity (308.15 K, x1 = 0.3499): 0.7933 ± 0.0071 mPa·s | viscosity (308.15 K, x1 = 0.4): 0.7101 ± 0.0067 mPa·s | viscosity (308.15 K, x1 = 0.4502): 0.6353 ± 0.0063 mPa·s | viscosity (308.15 K, x1 = 0.5001): 0.5698 ± 0.006 mPa·s | viscosity (308.15 K, x1 = 0.6): 0.4627 ± 0.0054 mPa·s | viscosity (308.15 K, x1 = 0.7): 0.3849 ± 0.0051 mPa·s | viscosity (308.15 K, x1 = 0.7999): 0.3262 ± 0.0049 mPa·s | viscosity (308.15 K, x1 = 0.9): 0.2729 ± 0.0047 mPa·s | viscosity (313.15 K, x1 = 0.0201): 0.7526 ± 0.0071 mPa·s | viscosity (313.15 K, x1 = 0.047): 0.826 ± 0.014 mPa·s | viscosity (313.15 K, x1 = 0.0499): 0.8529 ± 0.0075 mPa·s | viscosity (313.15 K, x1 = 0.0702): 0.9032 ± 0.0077 mPa·s | viscosity (313.15 K, x1 = 0.095): 0.929 ± 0.016 mPa·s | viscosity (313.15 K, x1 = 0.1): 0.9489 ± 0.0079 mPa·s | viscosity (313.15 K, x1 = 0.12): 0.961 ± 0.008 mPa·s | viscosity (313.15 K, x1 = 0.124): 0.945 ± 0.016 mPa·s | viscosity (313.15 K, x1 = 0.1499): 0.9659 ± 0.008 mPa·s | viscosity (313.15 K, x1 = 0.152): 0.955 ± 0.017 mPa·s | viscosity (313.15 K, x1 = 0.1701): 0.9492 ± 0.0079 mPa·s | viscosity (313.15 K, x1 = 0.192): 0.908 ± 0.016 mPa·s | viscosity (313.15 K, x1 = 0.1999): 0.9232 ± 0.0078 mPa·s | viscosity (313.15 K, x1 = 0.22): 0.9029 ± 0.0077 mPa·s | viscosity (313.15 K, x1 = 0.2499): 0.8658 ± 0.0075 mPa·s | viscosity (313.15 K, x1 = 0.2701): 0.8358 ± 0.0074 mPa·s | viscosity (313.15 K, x1 = 0.3001): 0.792 ± 0.0071 mPa·s | viscosity (313.15 K, x1 = 0.328): 0.737 ± 0.013 mPa·s | viscosity (313.15 K, x1 = 0.3499): 0.7155 ± 0.0067 mPa·s | viscosity (313.15 K, x1 = 0.4): 0.6429 ± 0.0063 mPa·s | viscosity (313.15 K, x1 = 0.4502): 0.5785 ± 0.006 mPa·s | viscosity (313.15 K, x1 = 0.49): 0.536 ± 0.01 mPa·s | viscosity (313.15 K, x1 = 0.5001): 0.5234 ± 0.0057 mPa·s | viscosity (313.15 K, x1 = 0.6): 0.4276 ± 0.0053 mPa·s | viscosity (313.15 K, x1 = 0.687): 0.386 ± 0.008 mPa·s | viscosity (313.15 K, x1 = 0.7): 0.361 ± 0.005 mPa·s | viscosity (313.15 K, x1 = 0.7999): 0.302 ± 0.0048 mPa·s | viscosity (313.15 K, x1 = 0.85): 0.333 ± 0.007 mPa·s | viscosity (313.15 K, x1 = 0.9): 0.2597 ± 0.0047 mPa·s | viscosity (318.15 K, x1 = 0.0201): 0.6793 ± 0.0066 mPa·s | viscosity (318.15 K, x1 = 0.0499): 0.7678 ± 0.007 mPa·s | viscosity (318.15 K, x1 = 0.0702): 0.8166 ± 0.0072 mPa·s | viscosity (318.15 K, x1 = 0.1): 0.8463 ± 0.0074 mPa·s | viscosity (318.15 K, x1 = 0.12): 0.8495 ± 0.0074 mPa·s | viscosity (318.15 K, x1 = 0.1499): 0.8555 ± 0.0074 mPa·s | viscosity (318.15 K, x1 = 0.1701): 0.8465 ± 0.0074 mPa·s | viscosity (318.15 K, x1 = 0.1999): 0.8249 ± 0.0073 mPa·s | viscosity (318.15 K, x1 = 0.22): 0.8044 ± 0.0072 mPa·s | viscosity (318.15 K, x1 = 0.2499): 0.7773 ± 0.007 mPa·s | viscosity (318.15 K, x1 = 0.2701): 0.7529 ± 0.0069 mPa·s | viscosity (318.15 K, x1 = 0.3001): 0.7134 ± 0.0067 mPa·s | viscosity (318.15 K, x1 = 0.3499): 0.6478 ± 0.0064 mPa·s | viscosity (318.15 K, x1 = 0.4): 0.5851 ± 0.006 mPa·s | viscosity (318.15 K, x1 = 0.4502): 0.5251 ± 0.0057 mPa·s | viscosity (318.15 K, x1 = 0.5001): 0.476 ± 0.0055 mPa·s | viscosity (318.15 K, x1 = 0.6): 0.3869 ± 0.0051 mPa·s | viscosity (318.15 K, x1 = 0.7): 0.3317 ± 0.0049 mPa·s | viscosity (318.15 K, x1 = 0.7999): 0.2774 ± 0.0048 mPa·s | viscosity (318.15 K, x1 = 0.9): 0.2431 ± 0.0046 mPa·s | viscosity (323.15 K, x1 = 0.047): 0.746 ± 0.013 mPa·s | viscosity (323.15 K, x1 = 0.095): 0.834 ± 0.015 mPa·s | viscosity (323.15 K, x1 = 0.124): 0.853 ± 0.015 mPa·s | viscosity (323.15 K, x1 = 0.152): 0.859 ± 0.015 mPa·s | viscosity (323.15 K, x1 = 0.192): 0.808 ± 0.014 mPa·s | viscosity (323.15 K, x1 = 0.328): 0.682 ± 0.012 mPa·s | viscosity (323.15 K, x1 = 0.49): 0.499 ± 0.01 mPa·s | viscosity (323.15 K, x1 = 0.687): 0.367 ± 0.008 mPa·s | viscosity (323.15 K, x1 = 0.85): 0.32 ± 0.007 mPa·s
